Measured values taken from US20260061084A1, “FIBROBLAST ACTIVATION PROTEIN (FAP) INHIBITORS, FAP CONJUGATES, AND DIAGNOSTIC AND THERAPEUTIC USES THEREOF” (Nuclidium AG, priority 2022, published 2026).

Columns and labels:
[1] = test system: HT-1080.hFAP tumor-bearing mice; assay: Biodistribution studies in xenografted mice; type: in vivo; details: for Biodistribution: HT-1080.wt: FAP-negative tumor; for Biodistribution: HT-1080.hFAP: FAP-positive tumor; for Accumulation in FAP-positive (HT-1080.hFAP) tumor and murine-FAP-positive tissues, such as the bone marrow (bones): xenografted mice, 1 h and 4 h p.i.
Method: The tumors were allowed to grow to an average volume of 100-200 mm^3.
Biodistribution Studies: The xenografted mice were randomized (n=5 per group) and injected intravenously via the tail vein with the ^61Cu-labeled radioligands (100 μL, […], 0.8-1MBq). Mice were euthanized 1 h and 4 h p.i. by CO2 asphyxiation. Organs of interest and blood were collected, rinsed of excess blood, blotted dry, weighed, and counted in a […]. The samples were counted against a suitably diluted aliquot of the injected solution as the standard and the results are expressed as the percentage of the injected activity per gram of tissue (% I.A./g) ±SD.

[2] = test system: HT-1080.hFAP (FAP-positive) cells; assay: In vitro cellular uptake (cell surface-bound and internalized fractions); type: cell-based, human; details: 37° C., specific uptake (HT-1080.wt subtracted)
Method: The cellular uptake was studied in vitro using intact cells seeded in 6-well plates overnight. […] At each investigated time point, the medium containing the unbound (free) radiotracer was removed, followed by two washing steps with ice-cold phosphate-buffered saline. The cells were then treated 2×5 min with ice-cold glycine solution (0.05 M, pH 2.8) to detach the cell surface-bound radiotracer (acid released). Afterwards, the cells containing the internalized radiotracer were detached with 1 M NaOH at 37° C. and collected for measurement. The amount of specific cell surface-bound and internalized radiotracer is expressed as percentage of the total applied activity, after subtracting the non-specific values.
The cells were then preconditioned in 360 μL of assay medium (MEM medium without supplements) at 37° C. for 60 min. 40 μL of a 2 nM solution of ^61Cu-labeled radioligand was added and the cells were incubated at 37° C. The cellular uptake was interrupted at different time points (15 min, 1 hour and 4 hours), by washing twice with ice-cold PBS. Cell surface-bound radioligand was obtained by washing cells twice with ice-cold glycine buffer (pH 2.8), followed by a collection of the internalized fraction with 1 M NaOH. The activity in each fraction was measured in a […] (Cobra II).

[3] = test system: Mice bearing FAP-positive and FAP-negative xenografts; assay: PET/CT imaging: remaining PET activity in the mouse body; type: in vivo
Method: The mice were euthanized by CO2 at 4 hours p.i., and static PET scans were acquired for 30 min.
PET/CT images were acquired using β-CUBE PET scanner system (Molecubes, Gent, Belgium), with a spatial resolution of 0.85 mm and an axial field-of-view of 13 cm. Dynamic PET scans were acquired for 60 min. All PET scans were decay corrected and reconstructed into a 192×192×384 matrix by an ordered subsets maximization expectation (OSEM) algorithm using 30 iterations, a voxel size of 400×400×400 μm a 15 min per frame. CT data was used to apply attenuation correction on the PET data. The CT was imaged supine, head first, using the NanoSPECT/CTTM scanner (Bioscan Inc.). Topograms and helical CT scans of the whole mouse were first acquired using the following parameters: X-ray tube current: 177 μA, X-ray tube voltage 45 kVp, 90 seconds and 180 frames per rotation, pitch 1. CT images were reconstructed using CTReco (version r1.146), with a standard filtered back projection algorithm (exact cone beam) and post-filtered (RamLak, 100% frequency cut-off), resulting in a pixel size of 0.2 mm. Co-registered PET/CT images were visualized using maximum intensity projection (MIP) with VivoQuant software (version 4.0).

Structure (SMILES)	Biodistribution: Spleen ([1]; 1 hour p.i., i.v.) [% I.A./g]	Biodistribution: Heart ([1]; 4 hours p.i., i.v.) [% I.A./g]	Biodistribution: Liver ([1]; 4 hours p.i., i.v.) [% I.A./g]	Biodistribution: Lung ([1]; 4 hours p.i., i.v.) [% I.A./g]	Biodistribution: Spleen ([1]; 4 hours p.i., i.v.) [% I.A./g]	Biodistribution: Stomach ([1]; 4 hours p.i., i.v.) [% I.A./g]	Biodistribution: HT-1080.wt ([1]; 1 hour p.i., i.v.) [% I.A./g]	Biodistribution: HT-1080.wt ([1]; 4 hours p.i., i.v.) [% I.A./g]	Biodistribution: HT-1080.hFAP ([1]; 1 hour p.i., i.v.) [% I.A./g]	Biodistribution: HT-1080.hFAP ([1]; 4 hours p.i., i.v.) [% I.A./g]	Accumulation in FAP-positive (HT-1080.hFAP) tumor and murine-FAP-positive tissues, such as the bone marrow (bones) [1]	Cell surface fraction ([2]; 15 min)	Internalized fraction ([2]; 30 min)	Cell surface fraction ([2]; 60 min)	Internalized fraction ([2]; 60 min)	Cell surface fraction ([2]; 240 min)	Internalized fraction ([2]; 240 min)	also measured
N#CC1CC(F)(F)CN1C(=O)CNC(=O)c1ccnc2ccc(NC(=O)CCC(=O)N3CCN(C(=O)CCC(C(=O)O)N4CCN(CC(=O)[O-])CCN(CC(=O)[O-])CC4)CC3)cc12.[61Cu+2] (stereo not shown) [[^61Cu]Cu-NODAGA-3]	0.5 ± 0.1	0.5 ± 0.0	0.7 ± 0.1	0.7 ± 0.1	0.3 ± 0.0	0.5 ± 0.0	4.0 ± 2.2	1.8 ± 0.3	7.9 ± 0.9	6.4 ± 2.0	high accumulation	0.9 ± 0.3 % of the applied activity	26.6 ± 4.9 % of the applied activity	1.2 ± 0.4 % of the applied activity	36.9 ± 5.3 % of the applied activity	1.4 ± 0.4 % of the applied activity	39.4 ± 4.8 % of the applied activity	Biodistribution: Heart ([1]; 1 hour p.i., i.v.): 0.7 ± 0.1 % I.A./g; Biodistribution: Intestine ([1]; 1 hour p.i., i.v.): 0.8 ± 0.2 % I.A./g; Biodistribution: Liver ([1]; 1 hour p.i., i.v.): 0.9 ± 0.1 % I.A./g; Biodistribution: Stomach ([1]; 1 hour p.i., i.v.): 0.8 ± 0.1 % I.A./g; Biodistribution: Blood ([1]; 4 hours p.i., i.v.): 0.9 ± 0.0 % I.A./g; Biodistribution: Intestine ([1]; 4 hours p.i., i.v.): 0.4 ± 0.1 % I.A./g; Biodistribution: Kidneys ([1]; 4 hours p.i., i.v.): 1.0 ± 0.2 % I.A./g; Biodistribution: Pancreas ([1]; 4 hours p.i., i.v.): 0.9 ± 0.0 % I.A./g
N#CC1CC(F)(F)CN1C(=O)CNC(=O)c1ccnc2ccc(NC(=O)CCC(=O)NCCNC(=O)CCC(C(=O)O)N3CCN(CC(=O)[O-])CCN(CC(=O)[O-])CC3)cc12.[61Cu+2] (stereo not shown) [[^61Cu]Cu-NODAGA-1]	0.8 ± 0.1	0.7 ± 0.1	1.0 ± 0.2	0.8 ± 0.2	0.5 ± 0.1	0.7 ± 0.1	4.5 ± 0.6	2.1 ± 0.5	12.6 ± 1.5	7.1 ± 3.0	high accumulation	1.2 ± 0.3 % of the applied activity	26.2 ± 3.5 % of the applied activity	1.4 ± 0.3 % of the applied activity	29.9 ± 1.8 % of the applied activity	1.3 ± 0.2 % of the applied activity	29.3 ± 1.8 % of the applied activity	Retention in the body (remaining PET activity 4 h p.i.), in words [3]: highest retention in the body
